In US20210395327A1, “Growth Hormone-Releasing Hormone Antagonists and Uses Thereof” (United States Government As Represented By The Department …, priority 2019, published 2021):
Non-standard residues stand in square brackets, D forms with d. Residues, ends and D or L forms follow the SMILES beside them. *: point of attachment. Phenylacetyl(2,3,4,5,6-F5) = O=C(Cc1c(F)c(F)c(F)c(F)c1F)*; Phe(F5) = N[C@@H](Cc1c(F)c(F)c(F)c(F)c1F)C(=O)O; Phe(4-Cl) = N[C@@H](Cc1ccc(Cl)cc1)C(=O)O; hArg = N=C(N)NCCCC[C@H](N)C(=O)O; 12Ado = NCCCCCCCCCCCC(=O)O; Nle = CCCC[C@H](N)C(=O)O; Orn = NCCC[C@H](N)C(=O)O; Abu = CC[C@H](N)C(=O)O; PhAc = O=C(Cc1ccccc1)*

Assays:
[1] = system: NCI-N87 stomach cancer cells; assay: In vitro cell viability (CellTiter 96), N87; type: cell-based, human; conditions: for In vitro relative inhibitory potency in comparison to MIA-602, NCI-N87: Table 3B, 5 μM for 72 H, MIA-602 = 1
How it was run: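 Potency is reported as percent inhibition of viability compared with the reference antagonist MIA602, measured with CellTiter 96 aqueous one solution reagent. Serum-starved cells (0.5% FBS, 24 h) were treated for 72 h, mostly at 5 μM, otherwise 2 μM.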

[2] = system: HT-29 colon cancer cells; assay: In vitro cell viability, HT-29; type: cell-based, human; conditions: Table 3B; 5 μM for 72 H; MIA-602 = 1
Procedure: The inhibitory effects of the various synthesized GHRH antagonists were tested in cell proliferation assays in various human cancer cell lines including stomach cancer (KATOIII, N87), colon cancer (HT-29), urothelial cancer (J82, RT4), pancreatic cancer (PANC-1, CFPAC-1), prostatic cancer (PC3), breast cancer (MX-1, HCC1806), ovarian cancer (SK-OV-3, OVCAR-3) and lung cancer (HCC827, H460).
(§1) Cell culture. Human cancer cell lines including pancreatic (PANC-1 and CFPAC-1), lung (HCC827 and H460), stomach (NCI-N87 and KATOIII), urothelial (J82, RT4), prostatic (PC3), breast (MX-1 and HCC 1806), colorectal (HT-29), and ovarian (SK-OV-3 and OVCAR-3) were obtained from the American Type Culture Collection (ATCC) and cultured at 37° C. in a humidified 95% air/5% CO2 atmosphere in the medium recommended by ATCC.
In vitro cell viability. Cell viability was analyzed as follows: cancer cells including pancreatic (PANC-1 and CFPAC-1), lung (HCC827 and H460), stomach (NCI-N87 and KATOIII), urothelial (J82, RT4), prostatic (PC3) and breast (MX-1 and HCC 1806), colorectal (HT-29) and ovarian (SK-OV-3 and OVCAR-3) were grown on 96 well plates to ˜60% confluence, the cells were starved for 24 h in culture medium containing 0.5% FBS. Cells were then treated with GHRH antagonists MIA602 AVR compounds at concentrations of 1, 2.5 or 5 μM, or vehicle (0.1% DMSO) in quintuplicates for 72 hours. The medium was replaced every 48 hours. Cell viability was measured using CellTiter 96 aqueous one solution kit (Promega). Inhibitory effects of tested AVR compounds in comparison to that of MIA602 are presented as inhibitory potency.
Inhibitory effects of selected AVR compounds in comparison to that of MIA602 are presented as inhibitory potency (e.g., percentage of inhibition). […] The cell lines tested including lung cancer HCC827 (FIG. 2A), pancreatic cancer CFPAC-1 (FIG. 2B), stomach cancer N87 (FIG. 2C), colon cancer HT-29 (FIG. 2D), breast cancers MX-1 and HCC1806 (FIGS. 2 E, F). Based on the results of cell proliferation assay after cancer cells were treated with antagonist at concentration of 5 μM for 72H, the relative inhibitory potency of AVR antagonists in comparison to MIA-602 is summarized in Table 3 A and B. Over 60 AVR compounds were tested in 12 cancer cell lines.
Based on the results of cell proliferation assay after cancer cells were treated with antagonist at concentration of 5 µM for 72H, * at concentration of 2 µM for 72 H.

[3] = system: lung cancer HCC827 xenograft; assay: Xenograft tumor growth in nude mice, HCC827; type: in vivo; conditions: for % Inhibition: vs control
Procedure: The peptides' activity was compared with GHRH antagonist MIA-602. All statistical analyzses were performed from comparing GHRA antagonists to non-treated tumor (control).
Peptides and chemicals. GHRH antagonists MIA-602 and AVR-GHRH antagonists (see Table 2 above) were synthesized by solid phase methods and purified by HPLC. The peptides were dissolved in DMSO and further diluted in 10% 1,2-propanediol. The final concentration of peptides was 50 µg/ml in 10% 1,2-propanediol containing 0.1% of DMSO.
as §1, with “(NCI-N87), prostate” for “(NCI-N87 and KATOIII), urothelial (J82, RT4), prostatic”, “brest” for “breast”, “HCC-1806),” for “HCC 1806),”
Xenograft models of human cancers in nude mice. Female athymic (NCr nu/nu) nude mice, 5- to 6-weeks-old, obtained from the Envigo labs (Tampa, Fla.), were housed in laminar airflow cabinets under pathogen-free conditions with a 12-h light/12-h dark schedule, and were fed autoclaved standard chow and water. To generate mice with xenografted tumors, tumor xenografts were initiated by subcutaneous (s.c.) injection of 107 human cancer cells into female nude mice. After about 4 weeks the resulting tumors were dissected and collected after removing necrosis tissues. The tumors were then cut into particles with size of 3 mm3 and transplanted s.c. by trocar needle into experimental animals. When tumors grew to the size of 50-60 mm3 (by volume), mice were randomized into groups and treated daily for 4-8 weeks by subcutaneous administration of 5 μg of GHRH antagonists MIA-602 or AVR-compounds (2-10 μg as indicated), or vehicle solutions (0.1% DMSO in 10% 1,2-propanediol) respectively. Tumor sizes were measured weekly.
Statistical analysis. One-way ANOVA followed by Bonferroni comparison were performed. Data are expressed as Mean±SEM. To determine statistical significance between animal groups, two-tailed Student's t-test was conducted. Differences were considered significant when p<0.05.
Results. […] FIG. 1A-N represents in vivo inhibition of tumor growth during the treatment with GHRH antagonist MIA-602 and selected AVR antagonists in nude mice xenografted with various human tumors including pancreatic cancer PANC-1 (FIG. 1A) and CFPAC-1 (FIG. 1I); lung cancer HCC827 (FIGS. 1B, C) and H460 (FIG. 1H); stomach cancer N87 (FIGS. 1D-F); colon cancer HT-29 (FIG. 1G); breast cancer MX-1 and HCC-1806 (FIGS. 1J, K); ovarian cancer SK-OV-3 and OVACAR-3 (FIGS. 1 L, M) and prostate cancer PC3 (FIG. 1N). See also Table 5.

[4] = Table 4B, Lung Ca HCC827, 7 weeks, 5 μg/day s.c.
[5] = Table 4C, Lung Ca HCC827, 8 weeks, 2.5 μg/day s.c.
[6] = Table 4C, Lung Ca HCC827, 8 weeks, 5 μg/day s.c.
[7] = Table 4C, Lung Ca HCC827, 8 weeks, 10 μg/day s.c.

Question: For `CCCC[C@H](NC(=O)[C@@H](NC(=O)[C@H](CC(=O)O)NC(=O)[C@H](CCC(N)=O)NC(=O)[C@H](CC(C)C)NC(=O)[C@H](CC(C)C)NC(=O)[C@H](CCCN)NC(=O)[C@H](Cc1c[nH]cn1)NC(=O)[C@H](C)NC(=O)[C@H](CO)NC(=O)[C@H](CC(C)C)NC(=O)[C@H](CCC(N)=O)NC(=O)[C@H](CC)NC(=O)[C@H](CC(C)C)NC(=O)[C@@H](NC(=O)[C@H](CCCN)NC(=O)[C@H](Cc1c[nH]cn1)NC(=O)[C@H](Cc1c(F)c(F)c(F)c(F)c1F)NC(=O)[C@H](CCCCNC(=N)N)NC(=O)[C@H](C)NC(=O)[C@@H](NC(=O)[C@H](Cc1ccc(Cl)cc1)NC(=O)[C@@H](NC(=O)[C@H](C)NC(=O)[C@H](CC(=O)O)NC(=O)[C@@H](CCCNC(=N)N)NC(=O)[C@H](Cc1ccc(O)cc1)NC(=O)CCCCCCCCCCCNC(=O)Cc1c(F)c(F)c(F)c(F)c1F)[C@@H](C)CC)[C@@H](C)O)C(C)C)[C@@H](C)CC)C(=O)N[C@H](CCCNC(=N)N)C(=O)N[C@@H](CCCCNC(=N)N)C(=O)NCCCCCCCCCCCC(=O)NC` [AVR-543, 5FPhAC-Ada-Tyr-DArg-Asp-Ala-Ile-Cpa-Thr-Ala-Har-5FPhe-His-Orn-Val-Leu-Abu-Gln-Leu-Ser-Ala-His-Orn-Leu-Leu-Gln-Asp-Ile-Nle-DArg-Har-Ada-NHCH3] ({Phenylacetyl(2,3,4,5,6-F5)-12Ado}-Y[dR]DAI[Phe(4-Cl)]TA[hArg][Phe(F5)]H[Orn]VL[Abu]QLSAH[Orn]LLQDI[Nle][dR][hArg][12Ado]-NHMe), which “In vitro relative inhibitory potency in comparison to MIA-602, NCI-N87” value (“In vitro relative inhibitory potency … NCI-N87” below) [1] is on record?
Answer: Its value is 0.908.

Question: What about the “In vitro relative inhibitory potency in comparison to MIA-602, HT-29” value (from here on “In vitro relative inhibitory potency … HT-29”) [2] of the same compound?
Answer: Its value is 0.999.

Question: And the “Tumor Growth %” value [3, 4]?
Answer: The value was 806.0%.

Question: And the “% Inhibition” value [3, 4]?
Answer: The value was 38.6%.

Question: `CCCC[C@H](NC(=O)[C@@H](NC(=O)[C@H](CC(=O)O)NC(=O)[C@H](CCC(N)=O)NC(=O)[C@H](CC(C)C)NC(=O)[C@H](CC(C)C)NC(=O)[C@H](CCCCN)NC(=O)[C@H](CCCNC(=N)N)NC(=O)[C@H](C)NC(=O)[C@H](CO)NC(=O)[C@H](CC(C)C)NC(=O)[C@H](CCC(N)=O)NC(=O)[C@H](CC)NC(=O)[C@H](CC(C)C)NC(=O)[C@@H](NC(=O)[C@H](CCCCN)NC(=O)[C@H](CCCNC(=N)N)NC(=O)[C@H](Cc1c(F)c(F)c(F)c(F)c1F)NC(=O)[C@H](CCCCNC(=N)N)NC(=O)[C@H](C)NC(=O)[C@@H](NC(=O)[C@H](Cc1ccc(Cl)cc1)NC(=O)[C@@H](NC(=O)[C@H](C)NC(=O)[C@H](CC(=O)O)NC(=O)[C@@H](CCCNC(=N)N)NC(=O)[C@H](Cc1ccc(O)cc1)NC(=O)CCCCCCCCCCCNC(=O)Cc1c(F)c(F)c(F)c(F)c1F)[C@@H](C)CC)[C@@H](C)O)C(C)C)[C@@H](C)CC)C(=O)N[C@H](CCCNC(=N)N)C(=O)N[C@@H](CCCCNC(=N)N)C(=O)NCCCCCCCCCCCC(N)=O` [AVR-353, 5FPhAC-Ada-Tyr-DArg-Asp-Ala-Ile-Cpa-Thr-Ala-Har-5FPhe-Arg-Lys-Val-Leu-Abu-Gln-Leu-Ser-Ala-Arg-Lys-Leu-Leu-Gln-Asp-Ile-Nle-DArg-Har-Ada-NH2] ({Phenylacetyl(2,3,4,5,6-F5)-12Ado}-Y[dR]DAI[Phe(4-Cl)]TA[hArg][Phe(F5)]RKVL[Abu]QLSARKLLQDI[Nle][dR][hArg][12Ado]-NH2) was tested. Which “In vitro relative inhibitory potency … NCI-N87” value [1] did it give?
Answer: The value was 3.404.

Question: And the “In vitro relative inhibitory potency … HT-29” value [2]?
Answer: Its value is 1.222.

Question: What about the “Tumor Growth %” value [3, 4] of the same compound?
Answer: Its value is 380.3%.

Question: What about the “% Inhibition” value [3, 4] of the same compound?
Answer: Its value is 71.0%.

Question: And the “Tumor Growth %” value [3, 5]?
Answer: The value was 545.65%.

Question: What about the “% Inhibition” value [3, 5] of the same compound?
Answer: The value was 35.1%.

Question: And the “Tumor Growth %” value [3, 6]?
Answer: Its value is 420.79%.

Question: And the “% Inhibition” value [3, 6]?
Answer: The value was 50.0%.

Question: What about the “Tumor Growth %” value [3, 7] of the same compound?
Answer: Its value is 359.16%.

Question: What about the “% Inhibition” value [3, 7] of the same compound?
Answer: The value was 57.3%.

Question: With `CCCC[C@H](NC(=O)[C@@H](NC(=O)[C@H](CC(=O)O)NC(=O)[C@H](CCC(N)=O)NC(=O)[C@H](CC(C)C)NC(=O)[C@H](CC(C)C)NC(=O)[C@H](CCCN)NC(=O)[C@H](Cc1c[nH]cn1)NC(=O)[C@H](C)NC(=O)[C@H](CO)NC(=O)[C@H](CC(C)C)NC(=O)[C@H](CCC(N)=O)NC(=O)[C@H](CC)NC(=O)[C@H](CC(C)C)NC(=O)[C@@H](NC(=O)[C@H](CCCN)NC(=O)[C@H](Cc1c[nH]cn1)NC(=O)[C@H](Cc1ccc(OC)cc1)NC(=O)[C@H](CCCCNC(=N)N)NC(=O)[C@H](C)NC(=O)[C@@H](NC(=O)[C@H](Cc1c(F)c(F)c(F)c(F)c1F)NC(=O)[C@@H](NC(=O)[C@H](C)NC(=O)[C@H](CC(=O)O)NC(=O)[C@@H](CCCNC(=N)N)NC(=O)[C@H](Cc1ccc(O)cc1)NC(=O)CCCCCCCCCCCNC(=O)Cc1ccccc1)[C@@H](C)CC)[C@@H](C)O)C(C)C)[C@@H](C)CC)C(=O)N[C@H](CCCNC(=N)N)C(=O)N[C@@H](CCCCNC(=N)N)C(N)=O` [MIA-602, PhAC-Ada, Tyr D-Arg, Asp, Ala, Ile, 5FPhe, Thr, Ala, Har, Tyr(Me), His, Orn, Val, Leu, Abu, Gin, Leu, Ser, Ala, His, Om, Leu, Leu, Gin, Asp, Ile; Nle, D-Arg, Har NH2, reference compound] ({PhAc-12Ado}-Y[dR]DAI[Phe(F5)]TA[hArg]Y(Me)H[Orn]VL[Abu]QLSAH[Orn]LLQDI[Nle][dR][hArg]-NH2) as the compound, how does the “In vitro relative inhibitory potency … NCI-N87” value [1] read?
Answer: The value was 1.

Question: What about the “relative inhibitory potency in comparison to MIA-602, Stomach N87” value ([1]; antagonist 5 μM for 72 h, cell proliferation assay, MIA602 = 1) of the same compound?
Answer: The value was 1.

Question: What about the “In vitro relative inhibitory potency … HT-29” value [2] of the same compound?
Answer: Its value is 1.

Question: And the “Tumor Growth %” value [3, 4]?
Answer: The value was 662.2%.

Question: And the “% Inhibition” value [3, 4]?
Answer: Its value is 49.5%.
